In US4177269A, “Novel 17-esters of 17α-hydroxy gestogens, compositions containing such compounds, processes for their preparation and methods of treatment therewith” (Aktiebolaget Leo, priority 1976, dated 1979):

Columns and labels:
[1] = Walker carcinosarcoma 256 tumour growth inhibition in rats; format: in vivo, Sprague-Dawley rats; parameters: ED50: unit: mg/kg; conditions: rat, in vivo, po, daily p.o. for 5 days
Source text: (§1) LD50 is the dose that causes a 50 percent lethality of the animals, and ED50 is the dose that causes a 50 percent reduction of tumour size.
(§2) The experimental design and the interpretation of the results are in accordance with the standards set by the CCNSC (Cancer Chemotherpy Reports, January 1959 and December 1962).
(§3) Walker carcinosarcoma 256.
(§4) Experimental animals: Sprague-Dawley rats.
(§5) Tumour implant: Tumour pieces with 2-4 mm diameter, sub-
(§6) Therapy: Daily p.o. administration for 5 days starting on
(§7) the day following implantation.
(§8) Termination: The animals are killed on the 9th day.
(§9) Evaluation: Weights of tumours of test animals are compared
(§10) with those of control animals.

[2] = system: Walker carcinosarcoma 256; test: as above; format: in vivo, Sprague-Dawley rats; parameters: ED50: unit: mg/kg; conditions: daily p.o. for 5 days, dose causing 50 percent reduction of tumour size, killed 9th day
Source text: as §1, §2, §3, §4, §5, §6, §7, §8, §9, §10

## CC(=O)[C@@]1(OC(=O)COC(=O)c2ccc(C)c(N(CCCl)CCCl)c2)CC[C@H]2[C@@H]3CCC4=CC(=O)CC[C@]4(C)[C@H]3CC[C@@]21C [Compound 3:7, 17α-/3-(N,N-bis(2-chloroethyl)amino)-4-methylbenzoyloxyacetoxy/pregn-4-ene-3,20-dione]
[1]; dose causing 50 percent lethality
  LD50: > 250 mg/kg
[1]; read-out: T.I. (LD50/ED50)
  selectivity ratio: > 15
[2]
  ED50: 16
